The compounds below were run against T1, human 5-HT6 receptor (Homo sapiens, UniProt P50406) (assay: Human 5-HT6 Receptor Binding Assay ([3H]LSD, scintillation beads)). Conditions: Human 5-HT6 Ki (nM), actual data; membranes of CHO-K1 cells with recombinant human 5-HT6 receptor, 4 nM [3H]LSD.
T1 construct: host or cells: CHO-K1 cells, stably transfected; membranes prepared in house
T1 sequence (P50406 whole entry): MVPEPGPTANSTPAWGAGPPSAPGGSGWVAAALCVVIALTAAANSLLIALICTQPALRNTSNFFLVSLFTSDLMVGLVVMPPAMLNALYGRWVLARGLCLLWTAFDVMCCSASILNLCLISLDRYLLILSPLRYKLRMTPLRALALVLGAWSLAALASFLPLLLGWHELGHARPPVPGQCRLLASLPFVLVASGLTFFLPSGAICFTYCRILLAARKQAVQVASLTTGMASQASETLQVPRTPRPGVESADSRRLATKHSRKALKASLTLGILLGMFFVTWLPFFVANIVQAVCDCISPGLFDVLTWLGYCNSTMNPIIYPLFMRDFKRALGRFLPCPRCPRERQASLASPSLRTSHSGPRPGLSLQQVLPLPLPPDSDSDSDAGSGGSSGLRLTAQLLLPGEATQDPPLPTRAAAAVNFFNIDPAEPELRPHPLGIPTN
Description: Human 5-HT6 Receptor Binding Assay
Membranes were prepared from CHO-K1 cells stably transfected with the human 5-HT6 receptor (Euroscreen; ES-316-C). The cells were grown in Gibco Advanced DMEM-F12 (Cat#12634010) containing 2% dialyzed FBS (Hyclone Cat#SH30079.03). The cells were harvested in phosphate buffered saline (PBS) containing 0.1 mM EDTA and pelleted by centrifugation (1000×g), the supernatant was discarded and the pellets were stored at −80° C. prior to membrane preparation. Membranes were prepared as previously described (J Bio Chem. 1992, 267 (14) 9844-51). Briefly, frozen cell pellet was resuspended in a lysis buffer containing 5 mM Tris-HCl (pH 7.5), 5 mM EDTA and 1 complete EDTA-free protease inhibitor tablet (Roche Applied Science, Indianapolis, Ind.) per 50 mL buffer, and homogenized with a tissue homogenizer. The cell lysate was then centrifuged at 40,000×g for 30 min at 4° C. to collect the membranes. The membrane pellets were washed in membrane buffer (50 mM Tris-HCl (pH 7.5), 0.6 mM EDTA, 5 mM MgCl2, 1 complete EDTA-free protease inhibitor tablet per 50 mL buffer) using a tissue homogenizer. The membranes were centrifuged at 40,000×g for 30 min at 4° C. and the pellets were resuspended in membrane buffer containing 250 mM sucrose, and protein concentration was determined using the Coomassie Plus kit (Pierce Biotechnology, Rockford, Ill.).
Membranes prepared from cells expressing recombinant human 5-HT6 receptor (h5-HT6) were resuspended in assay buffer containing 50 mM Tris HCl, (pH7.4), 4 mM CaCl2, 10 μg/mL saponin, and 0.1% (w/v) ascorbic acid. Membranes were preincubated using 1.75 μg membrane protein and 0.25 mg FlashBlue scintillation beads (PerkinElmer catalogue #FB001) per well at 4° C. for 30 min. […] Test compounds or assay controls for total and non-specific binding were diluted in DMSO as 100× solutions and serially diluted by half log concentrations on a Perkin Elmer JANUS Automated Workstation. Serotonin (10 μM final concentration) was used to determine non-specific binding in the assay. Plates were read using the Microbeta Trilux 1450 LSC and luminescence counter. Data were analyzed by nonlinear […] using the dose-response equation (variable slope) to calculate IC50 in XLfit4 (ID Business Solutions Inc.): y=(Bottom+((Top−Bottom)/(1+((IC50/x)^Hill slope))))
Ki value was then calculated according to the Cheng-Prusoff method using the equation below (Cheng and Prusoff, 1973): Ki, app=IC50/(1+([radioligand]/Kd))
Cc1cccc([S+]([O-])c2ccc3c(c2)OCC2NCCC32)n1 (single isomer, unassigned) [Example 22, 7-[(6-methylpyridin-2-yl)sulfinyl]-1,2,3,3a,4,9b-hexahydrochromeno[3,4-b]pyrrole] was tested, and the Ki was 51.5 nM.

Same assay, conditions: Human 5-HT6 Ki app (nM), membranes of CHO-K1 cells with recombinant human 5-HT6 receptor, 4 nM [3H]LSD, Cheng-Prusoff
Cc1cccc([S+]([O-])c2ccc3c(c2)OCC2NCCC32)n1 (single isomer, unassigned) [Example 22, 7-[(6-methylpyridin-2-yl)sulfinyl]-1,2,3,3a,4,9b-hexahydrochromeno[3,4-b]pyrrole] was tested, and the Ki was less than 500 nM.

Same assay, conditions: membranes of CHO-K1 cells with recombinant human 5-HT6 receptor, 4 nM [3H]LSD, Cheng-Prusoff; read-out: Human 5-HT6 Ki app
Compound CC(C)CN1CCC2c3ccc(S(=O)(=O)c4ccccc4)cc3OCC21 (single isomer, unassigned) [Example 91, 3-(2-methylpropyl)-7-(phenylsulfonyl)-1,2,3,3a,4,9b-hexahydrochromeno[3,4-b]pyrrole] has a Ki of less than 500 nM.
Work on CC(C)N1CCC2c3ccc(S(=O)(=O)c4ccccc4)cc3OCC21 (single isomer, unassigned) [Example 58, 7-(phenylsulfonyl)-3-(propan-2-yl)-1,2,3,3a,4,9b-hexahydrochromeno[3,4-b]pyrrole] yielded a Ki greater than 1000 nM.
Compound O=S(=O)(c1ccccc1)c1ccc2c(c1)C1CCN(C3CCC3)C1CO2 (single isomer, unassigned) [Example 88, 3-cyclobutyl-8-(phenylsulfonyl)-1,2,3,3a,4,9b-hexahydrochromeno[3,4-b]pyrrole] has a Ki of less than 500 nM.
O=S(=O)(c1ccccc1)c1ccc2c(c1)OCC1C2CCN1CC(F)F (single isomer, unassigned) [Example 67, 3-(2,2-difluoroethyl)-7-(phenylsulfonyl)-1,2,3,3a,4,9b-hexahydrochromeno[3,4-b]pyrrole] was tested, and the Ki was less than 500 nM.
O=S(=O)(c1cncc(Br)c1)c1ccc2c(c1)OCC1C2CCN1C1CCC1 (single isomer, unassigned) [Example 73, 7-[(5-bromopyridin-3-yl)sulfonyl]-3-cyclobutyl-1,2,3,3a,4,9b-hexahydrochromeno[3,4-b]pyrrole] gave a Ki of 500 to 1000 nM.
With [O-][S+](c1ccccc1)c1ccc2c(c1)OCC1NCCC21 (racemic) [Example 25, 7-(Phenylsulfinyl)-1,2,3,3a,4,9b-hexahydrochromeno[3,4-b]pyrrole] the Ki was less than 500 nM.
CC(C)CCCN1CCC2c3ccc(S(=O)(=O)c4ccccc4)cc3OCC21 (single isomer, unassigned) [Example 94, 3-(4-methylpentyl)-7-(phenylsulfonyl)-1,2,3,3a,4,9b-hexahydrochromeno[3,4-b]pyrrole] was tested, and the Ki was less than 500 nM.
For O=S(=O)(c1cncc(Br)c1)c1ccc2c(c1)OCC1C2CCN1C1CCC1 (single isomer, unassigned) [Example 78, 7-[(5-bromopyridin-3-yl)sulfonyl]-3-cyclobutyl-1,2,3,3a,4,9b-hexahydrochromeno[3,4-b]pyrrole], the Ki was greater than 1000 nM.
For O=S(=O)(c1ccccc1)c1ccc2c(c1)OCC1C2CCN1C1CCOC1 (single isomer, unassigned) [Example 65, 7-(phenylsulfonyl)-3-(tetrahydrofuran-3-yl)-1,2,3,3a,4,9b-hexahydrochromeno[3,4-b]pyrrole], the Ki was 500 to 1000 nM.
With Cc1cccc(Sc2ccc3c(c2)OCC2NCCC32)n1 (single isomer, unassigned) [Example 21, 7-[(6-methylpyridin-2-yl)sulfanyl]-1,2,3,3a,4,9b-hexahydrochromeno[3,4-b]pyrrole] the Ki was greater than 1000 nM.
In the case of O=S(=O)(c1ccccc1)c1ccc2c(c1)OCC1C2CCN1C1CCC1 (single isomer, unassigned) [Example 60, 3-cyclobutyl-7-(phenylsulfonyl)-1,2,3,3a,4,9b-hexahydrochromeno[3,4-b]pyrrole], the Ki is reported as greater than 1000 nM.
O=S(=O)(c1ccccc1)c1ccc2c(c1)OCC1C2CCN1C1CCCC1 (single isomer, unassigned) [Example 62, 3-cyclopentyl-7-(phenylsulfonyl)-1,2,3,3a,4,9b-hexahydrochromeno[3,4-b]pyrrole] was tested, and the Ki was greater than 1000 nM.
Compound O=S(=O)(c1ccccc1)c1ccc2c(c1)OCC1C2CCN1CC1CCCC1 (single isomer, unassigned) [Example 70, 3-(cyclopentylmethyl)-7-(phenylsulfonyl)-1,2,3,3a,4,9b-hexahydrochromeno[3,4-b]pyrrole] has a Ki of less than 500 nM.
With O=S(=O)(c1ccccc1)c1ccc2c(c1)C1CCN(C3CCC3)C1CO2 (single isomer, unassigned) [Example 89, 3-cyclobutyl-8-(phenylsulfonyl)-1,2,3,3a,4,9b-hexahydrochromeno[3,4-b]pyrrole] the Ki was less than 500 nM.
For CCOc1cc(F)cc(S(=O)(=O)c2ccc3c(c2)OCC2NCCC32)c1 (single isomer, unassigned) [Example 48, 7-[(3-ethoxy-5-fluorophenyl)sulfonyl]-1,2,3,3a,4,9b-hexahydrochromeno[3,4-b]pyrrole], the Ki was less than 500 nM.
For CC(C)Oc1cccc(S(=O)(=O)c2ccc3c(c2)OCC2NCCC32)c1 (single isomer, unassigned) [Example 18, 7-{[3-(propan-2-yloxy)phenyl]sulfonyl}-1,2,3,3a,4,9b-hexahydrochromeno[3,4-b]pyrrole], the Ki was less than 500 nM.
O=S(=O)(c1ccc2c(c1)OCC1NCCC21)c1cccc2ccccc12 (single isomer, unassigned) [Example 20, 7-(naphthalen-1-ylsulfonyl)-1,2,3,3a,4,9b-hexahydrochromeno[3,4-b]pyrrole] gave a Ki of less than 500 nM.
For O=S(=O)(c1ccccc1)c1ccc2c(c1)OCC1NCCC21 (single isomer, unassigned) [Example 55, 7-(phenylsulfonyl)-1,2,3,3a,4,9b-hexahydrochromeno[3,4-b]pyrrole], the Ki was less than 500 nM.
O=S(=O)(c1cccc(OC(F)(F)F)c1)c1ccc2c(c1)OCC1NCCC21 (single isomer, unassigned) [Example 7, 7-{[3-(trifluoromethoxy)phenyl]sulfonyl}-1,2,3,3a,4,9b-hexahydrochromeno[3,4-b]pyrrole] showed a Ki of less than 500 nM.
Compound O=S(=O)(c1cc(F)cc(F)c1)c1ccc2c(c1)OCC1NCCC21 (racemic) [Example 105, 7-[(3,5-difluorophenyl)sulfonyl]-1,2,3,3a,4,9b-hexahydrochromeno[3,4-b]pyrrole] has a Ki of less than 500 nM.
With CN(C)C(=O)c1cccc(S(=O)(=O)c2ccc3c(c2)OC[C@@H]2NCC[C@H]32)c1 (single isomer, unassigned) [Example 46] the Ki was less than 500 nM.
With O=S(=O)(c1ccc(F)cc1)c1ccc2c(c1)OCC1NCCC21 (single isomer, unassigned) [Example 4, 7-[(4-fluorophenyl)sulfonyl]-1,2,3,3a,4,9b-hexahydrochromeno[3,4-b]pyrrole] the Ki was less than 500 nM.
Work on O=S(=O)(c1ccccc1)c1ccc2c(c1)OCC1C2CCN1CCO (single isomer, unassigned) [Example 90, 2-[7-(Phenylsulfonyl)-1,3a,4,9b-tetrahydrochromeno[3,4-b]pyrrol-3(2H)-yl]ethanol] yielded a Ki of less than 500 nM.
CC(C)Oc1cc(F)cc(S(=O)(=O)c2ccc3c(c2)OCC2NCCC32)c1 (single isomer, unassigned) [Example 43, 7-{[3-fluoro-5-(propan-2-yloxy)phenyl]sulfonyl}-1,2,3,3a,4,9b-hexahydrochromeno[3,4-b]pyrrole] was tested, and the Ki was less than 500 nM.
With Cc1cccc(S(=O)(=O)c2ccc3c(c2)OCC2C3CCN2C2CCC2)n1 (single isomer, unassigned) [Example 85, 3-cyclobutyl-7-[(6-methylpyridin-2-yl)sulfonyl]-1,2,3,3a,4,9b-hexahydrochromeno[3,4-b]pyrrole] the Ki was greater than 1000 nM.
For O=S(=O)(c1ccccc1)c1ccc2c(c1)C1CCNC1CO2 (single isomer, unassigned) [Example 53, 8-(phenylsulfonyl)-1,2,3,3a,4,9b-hexahydrochromeno[3,4-b]pyrrole], the Ki was less than 500 nM.
Compound O=S(=O)(c1ccccc1)c1ccc2c(c1)OCC1C2CCN1Cc1ccccc1 (single isomer, unassigned) [Example 95, 3-benzyl-7-(phenylsulfonyl)-1,2,3,3a,4,9b-hexahydrochromeno[3,4-b]pyrrole] has a Ki of less than 500 nM.
O=S(=O)(c1ccccc1)c1ccc2c(c1)OCC1C2CCN1C1CCCCC1 (single isomer, unassigned) [Example 64, 3-cyclohexyl-7-(phenylsulfonyl)-1,2,3,3a,4,9b-hexahydrochromeno[3,4-b]pyrrole] gave a Ki greater than 1000 nM.

Same assay, conditions: read-out: Human 5-HT6 Ki app; membranes of CHO-K1 cells with recombinant human 5-HT6 receptor, 4 nM [3H]LSD, Cheng-Prusoff
O=S(=O)(c1cncc(Br)c1)c1ccc2c(c1)OCC1NCCC21 (single isomer, unassigned) [Example 31, 7-[(5-bromopyridin-3-yl)sulfonyl]-1,2,3,3a,4,9b-hexahydrochromeno[3,4-b]pyrrole] showed a Ki of less than 500 nM.

— US9115147B2, “Tricyclic derivatives and their pharmaceutical use and compositions” (Cephalon, Inc., priority 2009, dated 2015)
